Experimental data from publication PMC2650103 (Journal of medicinal chemistry, 2008).
Read-outs that look alike come from different tables or passages of the source.

Experiments:
[1] = tested on: vaccinia virus WR in BS-C-1 cells; test: microbe, parasite or virus in culture; assay type: cell-based; conditions: Orthopoxvirus vaccinia, BSC-1, 20 h, read-out: Cell Prot EC50
[2] = tested on: vaccinia virus WR in BS-C-1 cells; assay type: cell-based
[3] = tested on: BS-C-1 cells; conditions: African green monkey
[4] = cited from earlier work
[5] = Solubility in cell growth medium by light scattering; conditions: at the EC50 / over the range of concentrations used in the activity assays
[6] = tested on: vaccinia virus WR in BS-C-1 cells; test: microbe, parasite or virus in culture; assay type: cell-based; conditions: Orthopoxvirus vaccinia, BSC-1, 20 h, read-out: Plaque Red EC50
[7] = tested on: multiple orthopoxviruses, including two strains of variola virus; conditions: cited from earlier work

SMILES | EC50 [1] [µM] | Trapped by dsDNA [2] | Tox 72 h TC50 [3] | Tox 120 h TC50 [3] | Toxicity on intravenous administration [4] | Solubility in cell growth medium [5] | EC50 [6] [µM] | Growth of orthopoxviruses in cell cultures [7]
Nc1ccn(C[C@@H](CO)OCP(=O)(O)O)c(=O)n1.O.O [CDV, (S)-1-(3-hydroxy-2-phosphonylmethoxypropyl)cytosine, reference compound] | 132 | No | >500 ∞M | 300 ∞M | nephrotoxicity | – | – | –
COC(=O)c1cccc2c1-c1ccccc1/C2=N\O [Compound 1] | – | No | – | 20 ∞M | – | – | – | –
CCOC(=O)c1c(NC(=O)/C=C/C(=O)O)sc(C)c1-c1ccccc1 [Compound 2] | – | No | – | – | – | – | – | –
CCn1c2ccccc2c2ccc(/C=N/n3cnnc3)cc21 [Compound 3] | – | No | 36 ∞M | 3 ∞M | – | – | – | –
Cc1csc2c(N3CCN(C(=O)NC(C)(C)C)CC3)ncnc12 [Compound 4] | – | No | – | 40 ∞M | – | – | – | –
CCNc1nc(SCc2ccc(Cl)cc2)nc2sc3c(c12)CCN(C)C3 [Compound 5] | – | No | – | 5 ∞M | – | – | – | –
Cc1cc(/N=C/c2cc(Cl)cc(Cl)c2O)no1 [Compound 6] | – | No | 50 ∞M | 20 ∞M | – | – | – | –
Cc1c(/N=C/c2cc(Br)cc(Br)c2O)cccc1C(=O)O [Compound 7] | – | No | 38 ∞M | 20 ∞M | – | – | – | –
Cc1cc(OC(=O)c2ccco2)nc(SCc2c(Cl)cccc2Cl)n1 [Compound 8] | – | No | >100 ∞M | >100 ∞M | – | just slightly insoluble | – | –
O=C(Nc1ccccc1C(=O)O)OCC1c2ccccc2-c2ccccc21 [Compound 9] | 104 | No | 40 ∞M | 20 ∞M | – | – | – | –
CCS(=O)(=O)N1CCN=C1SCc1ccc(Cl)cc1Cl [Compound 10] | – | No | – | – | – | just slightly insoluble | – | –
Cc1ccc2c(Sc3ccc(Cl)cc3)c(C(=O)O)[nH]c2c1 [Compound 11] | 130 | No | 174 ∞M | 120 ∞M | – | – | – | –
N=C1S/C(=C/c2ccco2)C(=O)N1c1nccs1 [Compound 12] | – | No | >100 ∞M | 50 ∞M | – | just slightly insoluble | – | –
O=C(O)Cn1c2ccc(Cl)cc2c2nc3ccccc3nc21 [Compound 13] | – | No | 13 ∞M | 30 ∞M | – | just slightly insoluble | – | –
N=C1/C(=C/c2coc3ccccc3c2=O)C(=O)N=C2SC=NN12 [Compound 14] | 188 | No | >200 ∞M | 50 ∞M | – | – | 150 | –
CC(=O)n1c2ccccc2c2nc(C)sc21 [Compound 15] | 236 | No | >200 ∞M | 75 ∞M | – | – | – | –
O=C1/C(=C/C2CCCO2)CC/C1=C\C1CCCO1 (stereo not drawn) [Compound 16] | – | No | >100 ∞M | 50 ∞M | – | just slightly insoluble | – | –
O=C(NN1C(=O)C2C3C=CC(C4CC34)C2C1=O)c1ccc(C(F)(F)F)cc1 (stereo not drawn) [Compound 30, 4-trifluoromethyl-N-(3,3a,4,4a,5,5a,6,6a-octahydro-1,3-dioxo-4,6-ethenocycloprop[f]isoindol-2(1H)-yl)-benzamide] | – | – | – | – | – | – | – | inhibit the growth
